# Laboratory results as given in patent US20140186468A1, “DIAGNOSING SUBSETS OF TRIPLE-NEGATIVE BREAST CANCER” (priority 2012, published 2014).
# What was measured:
# [1] = system: BOGA cells (BRCA1-deficient MCF7 cells that overcome growth arrest); experiment: Western blot of 53BP1 protein levels in BOGA cells after treatment; type: cell-based, human; settings: vitamin D 10^−7M or E-64 10 μM vs vehicle
# Procedure: (FIG. 2A) MCF7 cells were transduced with shRNAs specific for depletion of 53BP1 (sh 53BP1), BRCA1 (sh BRCA1), or both combined. After selection (puromycin and/or G418), BRCA1, 53BP1, and CTSL levels were monitored by western. […] (FIG. 2C) Control and BOGA cells were transduced with sh CTSL or sh scr and the levels of CTSL, BRCA1, and 53BP1 monitored by western blot. […] (FIG. 2E) Control or BOGA cells were incubated with the broad cathepsin inhibitor E-64 (10 μM) or with vehicle (H2O), and the levels of 53BP1 and CTSL monitored by western blot.
# BGS was the vehicle in control media.
# Cells were incubated with the broad spectrum cathepsin inhibitor E-64 (E3132, Sigma-Aldrich) diluted in water at a concentration of 10 μM for 24 hours.
# Briefly, cells were washed twice with PBS, and incubated in CSK I buffer (10 mM PIPES pH6.8, 100 mM NaCl, 300 mM sucrose, 3 mM MgCl2, 1 mM EGTA, and 0.5% Triton X-100) for 5 minutes. Coverslips were washed 5 times with cold PBS and fixed in modified STF buffer (150 mM 2-Bromo-2-nitro-1,3,-propanediol, 108 mM diazolidinyl urea, 10 mM Na citrate, and 50 nM EDTA pH 5.7) for 30 minutes at room temperature. Coverslips were then washed twice with cold PBS and permeabilized (PB buffer: 100 mM Tris-HCl pH 7.4, 50 mM EDTA pH 8.0, and 0.5% Triton X-100) for 15 minutes at room temperature followed by 2 washes in PBS. […]
# BOGA cells [2] = experiment: Relative cell numbers 4 days after IR (recovery from IR); type: cell-based, human; settings: 4 days after combined treatment with IR
# BOGA cells [3] = experiment: Analysis of aberrant chromosomes in metaphase spreads; type: cell-based, human
# Procedure: Cells collected 24 hr post-IR were analyzed for genomic instability by quantitating the percentage of metaphases presenting with chromosomal aberrations, as shown in the images. N, number of independent experiments (50 metaphases analyzed per condition in each experiment). […] (FIG. 5C) Control and BOGA cells were incubated with the cathepsin inhibitor E-64 or vehicle control (C) for 24 hr prior to IR, and the extent of genomic instability assessed as in FIG. 5B. […] Treatment protocol was as in FIG. 5B. […] Treatment performed as in FIG. 5C. […] All values expressed as mean±SEM. N, number of independent experiments; *p value of statistical significance (*p≦0.05).
# Cells were treated with the PARPi EB-47 (E8405, Sigma-Aldrich) diluted in water at a concentration of 1.2 μg/mL for 48 hours.
# [4] = system: OH mammary carcinoma system; settings: mouse model; cited from earlier work
# MEFs = settings: cited from earlier work
# [5] = cited from earlier work
smiles,measurement,setting,value
CC(C)C[C@H](NC(=O)[C@H]1O[C@@H]1C(=O)O)C(=O)NCCCCN=C(N)N [E-64],53BP1 protein levels (western blot),[1],increased levels of 53BP1 protein
same,recovery from IR (relative cell numbers),BOGA cells [2],significantly reduced their recovery from IR
same,percentage of metaphases with aberrant chromosomes after IR,"BOGA cells [3]; treated 24 hr prior to 2 Gy, analysed 24 hr post-IR",markedly increased genomic instability after IR
NC(=S)N/N=C(/c1cccc(O)c1)c1cccc(Br)c1 [KGP94],malignant breast tumour growth delay,[4],showed great promise in this mouse model
Nc1ncnc2c1ncn2[C@@H]1O[C@H](C(=O)N2CCN(CC(=O)Nc3cccc4c3CNC4=O)CC2)[C@@H](O)[C@H]1O [PARPi],"genomic instability (metaphases with chromosomal aberrations), PARPi alone",BOGA cells [3]; EB-47 1.2 μg/mL for 48 hr,does not result in profound genomic instability
"C=C1/C(=C\C=C2/CCC[C@]3(C)[C@@H]([C@H](C)CCCC(C)(C)O)CC[C@@H]23)C[C@@H](O)C[C@@H]1O [vitamin D, 1α,25-dihydroxyvitamin D3]",53BP1 protein stability,MEFs,stabilizes 53BP1 protein in MEFs
same,CTSL activity,MEFs,inhibits CTSL activity
same,intake in published cases of toxicity involving hypercalcemia,[5]; cases with known dose and 25-hydroxy-vitamin D levels,"40,000 IU per day"
same,sustained intake producing overt toxicity,"[5]; healthy adults, after several months",more than 1250 micrograms/day
